Assay results taken from a melting point compilation (Tetko et al.; mined from patent text by program, amines drawn as free bases though some values may be those of a salt).

melting point [°C] | Structure (SMILES)
152 | C=COC(=O)N1C[C@@H]2C(=O)CCC(c3cccc(F)c3)(c3cccc(F)c3)[C@@H]2C1 (racemic)
71 to 73 | CCCCn1c(=O)c2c(ncn2S(=O)(=O)CCCCl)n(CCCC)c1=O
90.6 to 92.5 | C=C(c1ccc2cc(OC)ccc2c1)C(O)C(=O)OC (stereo unspecified)
115 to 120 | CCOc1c(C)c(C)c(OC)c(CN(C)CCOc2cc(C)ccc2C(C)C)c1C
108 | OC(CNC1=NCCN1)c1cccc(Cl)c1 (stereo unspecified)
138 to 140 | Clc1c(Cl)c(Cl)c(CI)c(Cl)c1Cl
231 to 232 | N#CCn1c2ccccc2c2nc3ccccc3nc21
151 to 153 | CC(NC(=S)Nc1ccc(N2CCCCC2)nc1)C(C)(C)C (stereo unspecified)
156 | N#Cc1cc(C(F)(F)F)cc(Br)c1-c1nc(C(F)(F)C(F)(F)F)c(Br)c(=O)[nH]1
250 to 253 | O=C(O)c1ccc(NN=C2CCCC2)cc1
148 to 150 | CN1CCC(c2c[nH]c3ccc(NS(=O)(=O)c4ccccc4)nc23)CC1
177 to 179 | O=C(O)c1ccccc1Sc1cccc(OCc2ccc3cc(Cl)ccc3n2)c1
113 to 115 | CN(C)c1ccccc1CSC1=NC(=O)C(C)(C)N1
168 to 170 | CSC1C(=O)Nc2c(Oc3ccccc3N)cccc21 (stereo unspecified)
120 to 124 | COC(=O)C1(CCCN2CCN(c3ccc(O)cc3)CC2)Sc2cc(OC)ccc2CCC1O (stereo unspecified)
226 to 227 | Cc1ccccc1C(Oc1cc(OCc2cncs2)ccc1C#N)C(=O)O (stereo unspecified)
210 to 211 | Cn1c(COc2ccc(CC3SC(=O)NC3=O)cc2)nc2ccc(OCc3ccccc3)nc21 (stereo unspecified)
157 to 159 | COc1ccccc1C(Cn1ccnc1)S(=O)c1ccc(C(=O)O)cc1 (stereo unspecified)
53 to 55 | CCCNc1nc(NCCC)nc(Nc2ccc(OC)c(F)c2)n1
123 to 124 | Cc1cnn(CC(=O)O)c1OCCCc1cn(-c2ccc(C(F)(F)F)cn2)nc1C(C)C
55 to 58 | COC(=O)Cc1ccc(C#C[Si](C)(C)C)cc1
194 to 195 | OP(O)C(NC(c1ccccc1)c1ccccc1)c1ccc2c(c1)OCO2 (stereo unspecified)
148 | COc1ccc(Cc2nc3c(c(OC)nn3C(C)CCCc3ccccc3)c(=O)[nH]2)cc1OC (stereo unspecified)
174 to 175 | COC(=O)c1ccc(CNC(=O)c2[nH]c(-c3cccs3)cc2-c2ccc(F)cc2)cn1

melting point [°C] | Structure (SMILES)
104 to 106 | C=CCc1ccc(OCCC(C)C)c2c(=O)cc(C(=O)OCC)oc12
100 to 102 | CCOC(=O)C(=O)CC(=O)c1c(-c2ccccc2)cc2ccccn12
70 to 72 | CCN(CC)C(=O)c1ncccc1OC(=S)N(CC)CC
222 to 225 | CC1(C)OCC(Cn2c(=O)sc3c(=O)[nH]c(N)nc32)O1 (stereo unspecified)
60 to 64 | O=C1N(CCCl)CCN1C1CCCCC1
126 to 128 | O=C(NCc1ccc(F)cc1)N1CCC(Oc2ccc(CCNC[C@H](O)COc3ccc(O)cc3)cc2)CC1
120 to 122 | COC(=O)C(=O)c1cn2c3c(cccc13)C(Br)CC2 (stereo unspecified)
> 310 | COc1ccc2nc3ccc(C(N)=O)cn3c(=O)c2c1
126 to 129 | CCSCCC(=O)NNC(=O)N1Cc2ccccc2Oc2ccc(Cl)cc21
119 to 122 | N=C(Nc1cc(Cl)cc(NC(=O)C=Cc2ccccc2Cl)c1)c1ccc(NCc2ccccn2)cc1
108 to 109 | OCc1ccc(-c2nn(Cc3ccccc3)c3ccccc23)o1
215 | CCOC(=O)C1=CC(C(=O)c2cc(Br)ccc2O)=CN2CCc3c([nH]c4ccccc34)C12C(=O)OCC (stereo unspecified)
150 to 151 | COC(C)(C)OCC(C)C1CCC2C3C=CC4=CC(=O)C5OC5C4(C)C3CCC12C (stereo unspecified)
90 to 91 | Cc1sc(-c2ccccc2)nc1-c1ccc(Cl)cc1
179 to 180 | Nc1cccc(-c2nc3ncccc3o2)c1
151 to 152 | Nc1cccc(Cc2cc(O)ccc2O)c1
152 to 153 | CC(=O)OCC1CC(n2c(I)nc3cc(Cl)c(Cl)cc32)C(OC(C)=O)C1OC(C)=O (stereo unspecified)
247 to 248 | CC(=O)Nc1nc2c(sc(=O)n2C2OC(COC(C)=O)C(OC(C)=O)C2OC(C)=O)c(=O)[nH]1 (stereo unspecified)
138 to 139 | CCOC(=O)c1cc2c3ccccc3ncn2c1
112 to 113 | COc1ccc(C(=O)Nc2ccc(C(C)(C)CNC(=O)c3nn(C)cc3Br)cc2)cc1OC
180 to 181 | COc1ccc(Cl)cc1S(=O)(=O)N1C2CCC1CN(CC(=O)Nc1ccccc1C)C2
210 to 213 | CCOC(=O)C1[C@H]2O[C@@H]3COC(C)(C)O[C@H]3C(=NO)[C@@H]12 (stereo partly specified)
84 to 85.5 | CCCCC/C(=C\C=C\C(=O)O)c1cccc(F)c1
125 to 127 | COc1ccc(C2COc3c(ccc(O)c3C)C2)cc1OC (stereo unspecified)

melting point [°C] | Structure (SMILES)
81.1 to 83.9 | Nc1nc2ccccc2c2c1nc(-c1ccccc1)n2CCCCNC(=O)c1ccc2ccccc2n1
260 | NNC(=O)c1cc(Cl)c(O)cc1O
232 to 235 | CN(Cc1ccc(NC(=O)C2=Cc3cc(Br)ccc3S(=O)(=O)CC2)cc1)C1CCOCC1
152 | CCOC(=O)C1CN(CC)c2nc3cc(F)c(F)cc3cc2C1=O (stereo unspecified)
> 250 | O=C1N=NC(=O)c2c1[nH]c1c(Cl)cccc21
145 to 149 | CCc1nc2c(cnn2CC)c(NC2CCOCC2)c1CNC(=O)c1cccc(C(=O)NCc2ccc(Cl)c(-c3cccc(CN4CC5CC4CN5)c3)c2)c1 (stereo unspecified)
80 to 120 | COc1cc(-c2nc(-c3cc(OC)c(OCc4ccccc4)c(OC)c3)c(-c3cc(OC)c(OCc4ccccc4)c(OC)c3)o2)cc(OC)c1OCc1ccccc1
154 to 155 | CC(C)C(NC(=O)Cn1cccc(NC(=O)CCc2ccccc2)c1=O)C(=O)C(F)(F)F (stereo unspecified)
118 to 120 | Cc1cc(C(O)(C(F)(F)F)C(F)(F)F)cc(C)c1OCC(=O)O
235 to 245 | O=c1oc2cc(OCc3nnn[nH]3)cc(OCc3nnn[nH]3)c2c2c1CC(c1ccccc1)CC2 (stereo unspecified)
133 to 134 | NCCON=C1c2ccccc2C2CC2c2ccccc21 (stereo unspecified)
151 to 152 | CC(C)C1NS(=O)(=O)N(COC(=O)c2c(Cl)cccc2Cl)C1=O (stereo unspecified)
178 to 183 | CC(C)n1cc(Cc2cc3cccc(-c4cccc(C(=O)NCCO)c4)c3s2)ccc1=O
203 to 204 | CC(C)OC(=O)N1c2cncnc2NC(=S)C1C (racemic)
85 to 86 | COc1c(C)c(C)c(OC)c(CC=C(C)CO)c1C
283 to 286 | NC(=O)c1nc(-c2cccnc2Cl)nc2c1[nH]c(=O)n2-c1ccccc1
205 to 207 | OC1(CNc2ccnc3cc(Cl)ccc23)CCCCC1
195 | O=C(NC(Cc1ccc(OCc2ccc(Cl)cc2)cc1)C(=O)O)c1cc2ccc(-c3ccc(Cl)cc3)cc2o1 (stereo unspecified)
203 to 205 | CSc1cnc2sccc2c1O
186 to 187 | CSc1ncc(OCc2cccnc2)c(=O)[nH]1
189 to 191 | NC(=O)N1C(=O)Cc2cc(N)ccc21
90 to 93 | CCCn1c(=O)n(Cc2ccccc2)c(=O)c2c(Cl)cc(Cl)cc21
> 300 | CC1(C)CC1(N)C(=O)OCC(CO)OCn1cnc2c(=O)[nH]c(N)nc21 (stereo unspecified)
> 300 | CN(c1cc2c3c(c1)CCCC3(C)CCC2)c1ncc(C(=O)O)cn1

melting point [°C] | Structure (SMILES)
85 to 90 | N#CC=C(N)c1ccc2ccccc2c1
148 to 150 | COC(=O)c1c(Cl)cc(Cl)cc1NC(=O)CSc1ccc(NC(=S)Nc2cccc(Cl)c2)cc1
247 to 252 | COc1cc(Nc2nc3cccc(-c4ccc(S(N)(=O)=O)cc4)c3o2)cc(OC)c1OC
167 | CCc1noc(-c2ccccc2)c1-c1ccc(S(N)(=O)=O)cc1
224 to 225 | CC(=O)Nc1nc2c(Oc3cc(-c4ccc5c(c4)OC(C)(C)C5)ncn3)cccc2s1
255 to 259 | CN(Cc1ccc(NC(=O)C2=Cc3cc(-c4ccc(N5CCOCC5)cc4)ccc3SCC2)cc1)C1CCOCC1
130 | CCSC(c1ccc(Cl)cc1Cl)C(C(=O)C(C)(C)CF)n1cncn1 (stereo unspecified)
158 to 160 | CN(C(=O)CN1C(=O)C(NC(=O)Nc2cccc(N)c2)N=C(CN2CCOCC2)c2ccccc21)c1ccccc1 (stereo unspecified)
176 to 178 | CCCCN(CCCCO)c1ccc(C=Cc2ccc(C=CC3=C(C#N)C(=C(C#N)C#N)OC3(C)C(F)(F)F)s2)c(OCc2ccccc2)c1 (stereo unspecified)
92 to 98 | COc1cc(I)c(Cl)cc1C(=O)N1Cc2cccn2Cc2ccccc21
165 to 168 | COc1c(O)ccc2oc(-c3ccc(O)cc3)cc12
139 | Cc1ccc(S(=O)(=O)OCCCn2c(=NC(=O)C(F)(F)F)sc3cc(OC(F)(F)F)ccc32)cc1
141 to 142 | CC(C)Cn1c(CNC(=O)OC(C)(C)C)c(-c2ccccc2)c2cc(OCc3ccccc3)ccc2c1=O
235 to 237 | COc1ccccc1NC(=O)Nc1cccc(-n2c(=O)c(CCC(=O)ON3C(=O)CCC3=O)nc3cccnc32)c1
156 to 157 | CC1(C)CCC(C)(C)c2c1ccc(CS(=O)(=O)c1ccccc1)c2N
123 to 124 | O=C(NCCO)c1cccc(-c2cccc3cc(Cc4ccc(OCC(F)(F)F)nc4)sc23)c1
203 to 205 | CC(C)(C)c1nc(C#N)nc(C(C)(C)C)c1O
172 to 174 | Cc1oc(-c2ccc(Cl)cc2)nc1COc1cccc(/C=C/C(C)n2oc(=O)[nH]c2=O)c1 (stereo unspecified)
149 to 151 | C/C(=C\c1ccc(OCC(=O)O)cc1)[N+](=O)[O-]
209 to 210 | Cc1ccc(-c2nnc3cc(-c4ccccc4)c(OCc4ncn(C)n4)nn23)s1
48 | CCCCCCCCCCCCCCCCOC(=O)NCCN1CCCCC1

Structure (SMILES) | melting point [°C]
CCCCCCC(C)(C)c1cc(O)c2c(c1)oc(=O)c1ccc(OC)cc12 | 149 to 151
CC(C)n1nc(-c2c(-c3ccccc3)nn3ccc(OCCN4CC4)cc23)ccc1=O | 159 to 160
COc1ccc(-n2cc(C3(O)CN4CCC3CC4)nn2)cc1 (stereo unspecified) | 174
